Test results from patent US4820694A, “Modifications of 3-O-demethylmycinose in macrocin and lactenocin” (priority 1986, dated 1989).
In brackets after ≈: the same amount, converted by molar mass. Like-named read-outs stand apart in the source and are kept apart here.

How the values were obtained:
[1] = test system: Pasteurella multocida 17E; assay: broth-dilution microtiter MIC test; format: cell-based; settings: Pasteurella multocida, 17E
Method: (§1) The MIC's in Table III were determined by standard agar-dilution assays. The MIC's in Table IV were obtained using conventional brothdilution microtiter tests.

[2] = test system: Pasteurella multocida 40G; assay: broth-dilution microtiter MIC test; format: cell-based; settings: Pasteurella multocida, 40G
Method: as §1

[3] = test system: Staphylococcus aureus 19C; assay: broth-dilution microtiter MIC test; format: cell-based; settings: Staphylococcus aureus, 19C
Method: as §1

[4] = test system: Pasteurella hemolytica 23C; assay: broth-dilution microtiter MIC test; format: cell-based; settings: Pasteurella, 23C
Method: as §1

[5] = test system: Bordetella bronchiseptica; assay: broth-dilution microtiter MIC test; format: cell-based; settings: Bordetella bronchiseptica
Method: as §1

Mycoplasma hyorhinis 29E = assay: broth-dilution microtiter MIC test; format: cell-based; settings: Mycoplasma, 29E
Method: as §1

[6] = test system: Mycoplasma gallisepticum 15E; assay: broth-dilution microtiter MIC test; format: cell-based; settings: Mycoplasmoides gallisepticum, 15E
Method: as §1

Mycoplasma synoviae 40A = assay: broth-dilution microtiter MIC test; format: cell-based; settings: Mycoplasmopsis synoviae, 40A
Method: as §1

Streptococcus sp. 19F = assay: broth-dilution microtiter MIC test; format: cell-based; settings: Streptococcus, SP.19F
Method: as §1

[7] = test system: Mycoplasma gallisepticum 36H; assay: broth-dilution microtiter MIC test; format: cell-based; settings: Mycoplasmoides gallisepticum, 36H
Method: as §1

[8] = test system: Pasteurella multocida 68C; assay: broth-dilution microtiter MIC test; format: cell-based; settings: Pasteurella multocida, 68C
Method: as §1

[9] = test system: Pasteurella hemolytica 22C; assay: broth-dilution microtiter MIC test; format: cell-based; settings: Pasteurella, 22C
Method: as §1

[10] = test system: Pasteurella multocida 22A; assay: broth-dilution microtiter MIC test; format: cell-based; settings: Pasteurella multocida, 22A
Method: as §1

[11] = test system: Pasteurella multocida 60A; assay: broth-dilution microtiter MIC test; format: cell-based; settings: Pasteurella multocida, 60A
Method: as §1

[12] = test system: Pasteurella hemolytica 41D; assay: broth-dilution microtiter MIC test; format: cell-based; settings: Pasteurella, 41D
Method: as §1

[13] = test system: Mycoplasma gallisepticum 29C; assay: broth-dilution microtiter MIC test; format: cell-based; settings: Mycoplasmoides gallisepticum, 29C
Method: as §1

[14] = test system: Streptococcus pyogenes C203; assay: protection of mice experimentally infected with S. pyogenes C203; format: in vivo
Method: The formula 1 compounds have shown in vivo antimicrobial activity against experimentally-induced infections in laboratory animals. When two doses of test compound were administered to mice experimentally infected with S. pyrogenes C203, the activity observed was measured as an ED50 value [effective dose in mg/kg to protect 50% of the test animals: see Warren Wick, et al., J. Bacteriol. 81, 233-235 (1961)].
^a mg/kg × 2; doses given 1 and 4 hours postinfection

[15] = test system: Streptococcus pneumoniae Park I; assay: microbe, parasite or virus in culture; format: cell-based; settings: Streptococcus pneumoniae
Method: as §1

[16] = test system: Staphylococcus aureus S13E; assay: microbe, parasite or virus in culture; format: cell-based; settings: Staphylococcus aureus, S13E
Method: as §1

[17] = test system: Staphylococcus epidermidis EPI1; assay: standard agar-dilution MIC assay; format: cell-based; settings: Staphylococcus epidermidis, EPI1
Method: as §1

[18] = test system: Streptococcus Group D 9960; assay: standard agar-dilution MIC assay; format: cell-based; settings: GROUPD9960, read-out: MIC
Method: as §1

[19] = test system: Streptococcus Group D X66; assay: standard agar-dilution MIC assay; format: cell-based; settings: read-out: MIC
Method: as §1

[20] = test system: Pseudomonas aeruginosa X239; assay: standard agar-dilution MIC assay; format: cell-based; settings: Pseudomonas aeruginosa, X239
Method: as §1

[21] = test system: Klebsiella pneumoniae X68; assay: standard agar-dilution MIC assay; format: cell-based; settings: Klebsiella pneumoniae, X68
Method: as §1

[22] = test system: Staphylococcus aureus X400; assay: standard agar-dilution MIC assay; format: cell-based; settings: Staphylococcus aureus, X400
Method: as §1

[23] = test system: Streptococcus pyogenes C203; assay: standard agar-dilution MIC assay; format: cell-based; settings: Streptococcus pyogenes, C203
Method: as §1

[24] = test system: Haemophilus influenzae C.L.; assay: standard agar-dilution MIC assay; format: cell-based; settings: Haemophilus influenzae
Method: as §1

Escherichia coli EC14 = assay: standard agar-dilution MIC assay; format: cell-based
Method: as §1

[25] = test system: Haemophilus influenzae 76; assay: standard agar-dilution MIC assay; format: cell-based; settings: Haemophilus influenzae, 76
Method: as §1

[26] = test system: Staphylococcus epidermidis 222; assay: standard agar-dilution MIC assay; format: cell-based; settings: Staphylococcus epidermidis, 222
Method: as §1

[27] = test system: Staphylococcus aureus X1.1; assay: standard agar-dilution MIC assay; format: cell-based; settings: Staphylococcus aureus, X1.1
Method: as §1

[28] = test system: Staphylococcus aureus V41; assay: standard agar-dilution MIC assay; format: cell-based; settings: Staphylococcus aureus, V41
Method: as §1

Row | SMILES | MIC [1] [µg/mL] | MIC [2] [µg/mL] | MIC [3] [µg/mL] | MIC [4] [µg/mL] | MIC (Mycoplasma hyorhinis 29E) [µg/mL] | MIC [6] [µg/mL] | MIC (Mycoplasma synoviae 40A) [µg/mL] | MIC (Streptococcus sp. 19F) [µg/mL] | MIC [7] [µg/mL] | MIC [8] [µg/mL] | MIC [9] [µg/mL] | MIC [10] [µg/mL] | MIC [11] [µg/mL] | MIC [12] [µg/mL] | MIC [13] [µg/mL] | MIC [15] [µg/mL] | MIC [16] [µg/mL] | MIC [17] [µg/mL] | MIC [18] [µg/mL] | MIC [19] [µg/mL] | further results
1 | CCC1OC(=O)CC(O)C(C)C(OC2OC(C)C(O)C(N(C)C)C2O)C(CC=O)CC(C)C(=O)C=CC(C)=CC1COC1OC(C)C(OC(=O)COc2ccccc2)C(OC(=O)COc2ccccc2)C1OC (stereo not drawn) [Compound 36, 3",4"-Di-O-phenoxyacetyl-lactenocin] | 50 (≈ 48.7 µM) | 50 (≈ 48.7 µM) | 1.56 (≈ 1.52 µM) | 25 (≈ 24.4 µM) | 6.25 (≈ 6.09 µM) | 12.5 (≈ 12.2 µM) | 1.56 (≈ 1.52 µM) | 0.78 (≈ 0.76 µM) | 12.5 (≈ 12.2 µM) | 25 (≈ 24.4 µM) | 50 (≈ 48.7 µM) | 50 (≈ 48.7 µM) | 50 (≈ 48.7 µM) | 25 (≈ 24.4 µM) | 0.39 (≈ 0.38 µM) | 1 (≈ 0.974 µM) | 2 (≈ 1.95 µM) | 2 (≈ 1.95 µM) | 2 (≈ 1.95 µM) | 2 (≈ 1.95 µM) | MIC ([5]; broth-dilution microtiter, read-out: MIC): > 50 µg/mL; ED50 ([14]; C203, Oral, mice, mg/kg × 2, doses given 1 and 4 hours postinfection, read-out: ED50): > 100 mg/kg; ED50 ([14]; C203, sc, Subcutaneous, mice, mg/kg × 2, doses given 1 and 4 hours postinfection, read-out: ED50): 4.3 mg/kg; MIC ([20]; agar-dilution, read-out: MIC): > 128 µg/mL; MIC ([21]; agar-dilution, read-out: MIC): > 128 µg/mL; MIC [22]: 2 µg/mL (≈ 1.95 µM); MIC [23]: 0.5 µg/mL (≈ 0.487 µM); MIC [24]: 32 µg/mL (≈ 31.2 µM); MIC (Escherichia coli EC14; agar-dilution, read-out: MIC): > 128 µg/mL; MIC [25]: 32 µg/mL (≈ 31.2 µM); MIC [26]: 0.5 µg/mL (≈ 0.487 µM); MIC [27]: 2 µg/mL (≈ 1.95 µM); MIC [28]: 2 µg/mL (≈ 1.95 µM)
2 | CCC1OC(=O)CC(O)C(C)C(OC2OC(C)C(O)C(N(C)C)C2O)C(CC=O)CC(C)C(=O)C=CC(C)=CC1COC1OC(C)C(OC(=O)Cc2ccccc2)C(O)C1OC (stereo not drawn) [Compound 30, 4"-O-Phenylacetyl-lactenocin] | 25 (≈ 28.5 µM) | 25 (≈ 28.5 µM) | 6.25 (≈ 7.13 µM) | 25 (≈ 28.5 µM) | 1.56 (≈ 1.78 µM) | 12.5 (≈ 14.3 µM) | 1.56 (≈ 1.78 µM) | 1.56 (≈ 1.78 µM) | 25 (≈ 28.5 µM) | 12.5 (≈ 14.3 µM) | 50 (≈ 57.1 µM) | 25 (≈ 28.5 µM) | 25 (≈ 28.5 µM) | 50 (≈ 57.1 µM) | 0.39 (≈ 0.445 µM) | 0.5 (≈ 0.571 µM) | 0.5 (≈ 0.571 µM) | 0.5 (≈ 0.571 µM) | 1 (≈ 1.14 µM) | 0.5 (≈ 0.571 µM) | MIC [5]: > 50 µg/mL; MIC [20]: > 128 µg/mL; MIC [21]: > 128 µg/mL; MIC [22]: 1 µg/mL (≈ 1.14 µM); MIC [23]: 0.25 µg/mL (≈ 0.285 µM); MIC [24]: 8 µg/mL (≈ 9.13 µM); MIC (Escherichia coli EC14): > 128 µg/mL; MIC [25]: 8 µg/mL (≈ 9.13 µM); MIC [26]: 0.25 µg/mL (≈ 0.285 µM); MIC [27]: 0.5 µg/mL (≈ 0.571 µM); MIC [28]: 0.5 µg/mL (≈ 0.571 µM)
3 | CCC1OC(=O)CC(O)C(C)C(OC2OC(C)C(O)C(N(C)C)C2O)C(CC=O)CC(C)C(=O)C=CC(C)=CC1COC1OC(C)C(O)C(OC(=O)Cc2ccccc2)C1OC (stereo not drawn) [Compound 32, 3"-O-Phenylacetyl-lactenocin] | 25 (≈ 28.5 µM) | 25 (≈ 28.5 µM) | 1.56 (≈ 1.78 µM) | 25 (≈ 28.5 µM) | 1.56 (≈ 1.78 µM) | 12.5 (≈ 14.3 µM) | 1.56 (≈ 1.78 µM) | 1.56 (≈ 1.78 µM) | 25 (≈ 28.5 µM) | 12.5 (≈ 14.3 µM) | 25 (≈ 28.5 µM) | 25 (≈ 28.5 µM) | 25 (≈ 28.5 µM) | 25 (≈ 28.5 µM) | 0.195 (≈ 0.223 µM) | 0.5 (≈ 0.571 µM) | 1 (≈ 1.14 µM) | 0.5 (≈ 0.571 µM) | 1 (≈ 1.14 µM) | 1 (≈ 1.14 µM) | MIC [5]: > 50 µg/mL; ED50 ([14]; C203, sc): 4.4 mg/kg; MIC [20]: > 128 µg/mL; MIC [21]: > 128 µg/mL; MIC [22]: 2 µg/mL (≈ 2.28 µM); MIC [23]: 0.25 µg/mL (≈ 0.285 µM); MIC [24]: 8 µg/mL (≈ 9.13 µM); MIC (Escherichia coli EC14): > 128 µg/mL; MIC [25]: 8 µg/mL (≈ 9.13 µM); MIC [26]: 0.25 µg/mL (≈ 0.285 µM); MIC [27]: 0.5 µg/mL (≈ 0.571 µM); MIC [28]: 1 µg/mL (≈ 1.14 µM)
